Publication PMC6767236, “Selective Cannabinoid 2 Receptor Agonists as Potential Therapeutic Drugs for the Treatment of Endotoxin-Induced Uveitis” (Molecules, 2019)
≈ marks a conversion by molar mass, not a printed value. Like-named read-outs stand apart in the source and are kept apart here.

Columns and labels:
[1] = molecular target: T1, human CB2R (Homo sapiens, UniProt P34972); test: PathHunter β-arrestin recruitment assay, hCB2R; format: cell-based
T1 construct: bgal (beta-galactosidase fragment of the PathHunter system, named only in the cell line's name); host or cells: CHO-K1 (CHOK1hCB2_bgal)
Protocol: (§1) Assays were carried out using the PathHunter hCB1_bgal, hCB2_bgal, or mCB2_bgal CHOK1 β-arrestin recruitment assay kit (DiscoveRx, Fremont, CA, USA) as previously described. A total of 5000 cells per well were seeded in 384-well plates (Perkin Elmer, MA, USA) containing 20 μL cell culture medium and incubated for 16–18 h at 37 °C and 5% CO2. Cells were stimulated with 10 μM of each agonist or 11 increasing concentrations and incubated for 90 min at 37 °C and 5% CO2. […] The cells were incubated for 90 min at 37 °C and 5% CO2. Compounds in DMSO stock solutions were added using a HP D300 Digital Dispenser (Tecan, Mannedorf, Switzerland). The final concentration of organic solvent per assay point was ≤ 0.1%. The PathHunter Detection mixture was used, according to the manufacturer’s protocol, to determine the β-galactosidase enzyme activity. Detection mixture, 12 μL per well, was added and the plate was incubated for 1 h in the dark at room temperature. Chemiluminescence, indicated as relative light unit, was measured on an EnVision multilabel plate reader (Perkin Elmer, MA, USA).

[2] = Chemical stability (aqueous stability assay ASTA); format: physicochemical; conditions: aqueous buffer, 37 °C
Protocol: Chemical Stability (= Aqueous Stability Assay ASTA)
ASTA is a fully automated assay to determine the 2 h stability of a molecule in aqueous conditions, over the pH range 1–10. Five different pH values are used and the solutions are heated at 37 °C. A compound is classified unstable if, after 2 h, less than 90% of the initial concentration can be found. Samples are first prepared on incubation plates and shaken initially for 10 min at 37 °C.
Solutions are then transferred to a filter plate (Millipore MSGVN2250, pore size 0.22 µm) and filtrated into V-bottom plates (from ABGene, AB-0800) that are heat-sealed prior to HPLC analysis. The procedure is performed a second time. However, the incubation time at 37 °C for the second plate is increased by 2 h. Samples are taken at time point 0 and 2 h and analyzed by HPLC. […]

[3] = molecular target: CYP3A4 (Homo sapiens, UniProt P08684); test: Cytochrome P450 inhibition assay, CYP3A4; format: in vitro ADME
[4] = molecular target: CYP2C9 (Homo sapiens, UniProt P11712); test: Cytochrome P450 inhibition assay, CYP2C9; format: in vitro ADME
[5] = molecular target: CYP2D6 (Homo sapiens, UniProt P10635); test: Cytochrome P450 inhibition assay, CYP2D6; format: in vitro ADME
[6] = Saturation solubility in selected solvents/vehicles; format: physicochemical; conditions: for solubility: thermodynamic from solid; for pH of solution in HP-beta-CD 15% / pH of solution in PEG400 30% / pH of solution in Mixed Micelles / pH of solution in Tocrisolve: solubility sample
Protocol: (§2) Saturation Solubility (= Thermodynamic Solubility)
(§3) Approximately 8.6 mg test compound per milliliter solvent/vehicle was stirred in HPLC vials (9 × 12 × 32 mm, Waters) at 350 rpm for 15 h. Samples of 10 µL each were taken and microscopically examined for presence of solid particles. If the active pharmacological ingredient (API) dissolved completely, more solid API was added, and stirring was continued for another 15 h. Addition of solid material was repeated up to 96 h or until residual solid particles could be detected. Samples of 0.5 mL were then transferred to Eppendorf Ultrafree filter tubes (Filter: PVDF 0.22 µm) and centrifuged at 14,500 rpm for 10 min. The filtrates were diluted in ethanol and analyzed for content by UPLC. The measurements were also conducted in 0.05 M aqueous phosphate buffer, fasted (FaSSIF), and fed (FeSSIF) simulated gastrointestinal fluid. […]

[7] = cited from earlier work; for PAMPA Peff: * at end of cell: previously published; for PAMPA %Acceptor / PAMPA %Donor / PAMPA %Membrane: * previously published
[8] = human hepatocytes; * previously published; cited from earlier work
[9] = cited from earlier work; for Hepatocyte Clearance mouse: mouse hepatocytes, * previously published
[10] = molecular target: mouse CB2R (Mus musculus, UniProt P47936); test: cell-based; format: cell-based; design: bgal (beta-galactosidase fragment of the PathHunter system, named only in the cell line's name); host or cells: CHO-K1 (CHOK1mCB2_bgal)
Protocol: as §1

[11] = Saturation (thermodynamic) solubility in buffer, FaSSIF, FeSSIF; format: physicochemical; conditions: thermodynamic from solid
Protocol: as §2, §3

[12] = mouse, oral, HU308 5 mg/kg, others 3 mg/kg; * previously published; cited from earlier work
[13] = molecular target: T1, human CB2R; conditions: read-out: hCB2R: Ki; cited from earlier work
[14] = * previously published; cited from earlier work
[15] = system: human P-gp; conditions: human P-gp; * previously published; cited from earlier work
[16] = system: mouse P-gp; conditions: mouse P-gp; * previously published; cited from earlier work
[17] = pH 1, 2 h, read-out: Chemical Stability in Aqueous Buffer at pH 1 (% remaining after 2 h at 37 °C)
[18] = pH 4, 2 h, read-out: Chemical Stability in Aqueous Buffer at pH 4 (% remaining after 2 h at 37 °C)
[19] = pH 6.5, 2 h, read-out: Chemical Stability in Aqueous Buffer at pH 6.5 (% remaining after 2 h at 37 °C)
[20] = pH 8, 2 h, read-out: Chemical Stability in Aqueous Buffer at pH 8 (% remaining after 2 h at 37 °C)
[21] = pH 10, 2 h, read-out: Chemical Stability in Aqueous Buffer at pH 10 (% remaining after 2 h at 37 °C)
[22] = aqueous with cosolvent or surfactant or cyclodextrin, in demin. water, n = 1, HU308 crystalline material, read-out: Solubility in HP-beta-CD 15%
[23] = aqueous with cosolvent or surfactant or cyclodextrin, n = 1, RO6871085 as hydrochloride salt, HU308 crystalline material, > = saturation not achieved, read-out: Solubility in Tocrisolve
[24] = oil or lipid, n = 1, RO6871085 as hydrochloride salt, HU308 crystalline material, > = saturation not achieved, read-out: Solubility in MCT (Miglyol 812)
[25] = pH 6, aqueous with cosolvent or surfactant or cyclodextrin, 200 mM glycocholic acid, 200 mM lecithin in water for injection, pH 6, n = 1, RO6871085 as hydrochloride salt, read-out: Solubility in Mixed Micelles
[26] = RO6871085 as hydrochloride salt
[27] = read-out: mouse CB2R: beta arrestin EC50
[28] = FaSSIF pH 6.5, read-out: Thermodynamic Solubility in FaSSIF (pH 6.5)
[29] = FeSSIF pH 5.5, read-out: Thermodynamic Solubility in FeSSIF (pH 5.5)
[30] = aqueous phosphate buffer pH 6.5, read-out: Thermodynamic Solubility in Aqueous Buffer (pH 6.5)

mouse CB2R, sequence (P47936 whole entry, the tested form may be a part): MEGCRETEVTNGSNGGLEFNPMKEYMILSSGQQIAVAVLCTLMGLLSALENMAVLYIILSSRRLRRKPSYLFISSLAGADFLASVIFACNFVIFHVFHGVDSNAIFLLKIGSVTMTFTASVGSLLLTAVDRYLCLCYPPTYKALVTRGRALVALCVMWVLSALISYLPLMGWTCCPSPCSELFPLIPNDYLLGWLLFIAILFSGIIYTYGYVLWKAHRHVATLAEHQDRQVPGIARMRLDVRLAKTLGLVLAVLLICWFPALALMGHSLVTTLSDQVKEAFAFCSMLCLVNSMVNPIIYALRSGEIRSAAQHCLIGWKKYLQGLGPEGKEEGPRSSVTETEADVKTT
CYP2D6, sequence (P10635 whole entry): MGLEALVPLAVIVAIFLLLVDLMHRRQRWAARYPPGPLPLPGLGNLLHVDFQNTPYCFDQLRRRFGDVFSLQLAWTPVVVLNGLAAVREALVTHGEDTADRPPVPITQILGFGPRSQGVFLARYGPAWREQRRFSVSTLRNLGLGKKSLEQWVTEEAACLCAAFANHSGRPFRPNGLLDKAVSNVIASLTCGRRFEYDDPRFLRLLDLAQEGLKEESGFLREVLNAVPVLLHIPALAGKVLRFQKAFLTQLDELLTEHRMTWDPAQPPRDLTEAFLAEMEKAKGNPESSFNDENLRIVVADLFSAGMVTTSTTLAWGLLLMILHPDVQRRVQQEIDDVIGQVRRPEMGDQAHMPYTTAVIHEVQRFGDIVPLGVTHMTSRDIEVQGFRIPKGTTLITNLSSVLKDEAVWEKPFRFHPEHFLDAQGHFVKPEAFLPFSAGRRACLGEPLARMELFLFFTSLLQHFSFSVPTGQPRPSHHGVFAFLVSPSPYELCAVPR
T1 sequence (P34972 whole entry, the tested form may be a part): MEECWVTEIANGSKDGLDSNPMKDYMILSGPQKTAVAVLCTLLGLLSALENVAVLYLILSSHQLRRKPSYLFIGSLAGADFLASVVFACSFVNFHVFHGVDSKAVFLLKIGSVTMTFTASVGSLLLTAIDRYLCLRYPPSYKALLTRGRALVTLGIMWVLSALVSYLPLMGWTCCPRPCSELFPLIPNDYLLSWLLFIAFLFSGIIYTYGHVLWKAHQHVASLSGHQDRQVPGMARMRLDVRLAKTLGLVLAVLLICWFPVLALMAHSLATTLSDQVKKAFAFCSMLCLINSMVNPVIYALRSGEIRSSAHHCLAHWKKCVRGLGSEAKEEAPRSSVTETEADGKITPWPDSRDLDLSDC
CYP2C9, sequence (P11712 whole entry): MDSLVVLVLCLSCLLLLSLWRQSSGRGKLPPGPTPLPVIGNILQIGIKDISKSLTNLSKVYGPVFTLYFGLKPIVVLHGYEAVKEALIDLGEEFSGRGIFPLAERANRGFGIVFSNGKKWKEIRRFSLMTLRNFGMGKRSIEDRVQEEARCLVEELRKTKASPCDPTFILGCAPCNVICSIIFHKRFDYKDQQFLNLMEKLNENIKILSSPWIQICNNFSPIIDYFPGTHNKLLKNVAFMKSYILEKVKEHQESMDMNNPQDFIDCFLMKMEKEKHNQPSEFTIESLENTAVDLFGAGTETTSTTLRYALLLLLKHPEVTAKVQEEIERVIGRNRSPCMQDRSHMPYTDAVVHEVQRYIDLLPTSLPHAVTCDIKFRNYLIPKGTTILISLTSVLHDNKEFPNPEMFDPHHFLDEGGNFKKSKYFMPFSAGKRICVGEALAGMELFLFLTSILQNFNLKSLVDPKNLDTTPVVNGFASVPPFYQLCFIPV
CYP3A4, sequence (P08684 whole entry): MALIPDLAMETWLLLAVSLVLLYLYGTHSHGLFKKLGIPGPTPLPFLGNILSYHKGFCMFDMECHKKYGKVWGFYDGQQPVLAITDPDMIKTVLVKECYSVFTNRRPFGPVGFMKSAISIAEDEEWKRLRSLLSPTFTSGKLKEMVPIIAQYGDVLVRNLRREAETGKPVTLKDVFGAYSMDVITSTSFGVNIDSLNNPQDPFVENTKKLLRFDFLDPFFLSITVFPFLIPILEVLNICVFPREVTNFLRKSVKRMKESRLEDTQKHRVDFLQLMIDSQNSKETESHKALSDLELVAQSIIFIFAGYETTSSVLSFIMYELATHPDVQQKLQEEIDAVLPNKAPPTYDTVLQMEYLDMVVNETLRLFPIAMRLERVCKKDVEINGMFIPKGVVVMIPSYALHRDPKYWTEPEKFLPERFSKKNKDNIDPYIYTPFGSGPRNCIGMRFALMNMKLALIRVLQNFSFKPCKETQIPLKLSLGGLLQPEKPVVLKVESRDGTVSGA

Compound	hCB1R beta arrestin EC50/hCB2R beta arrestin EC50 [1]	remaining at 2 h [2, 17] [%]	remaining at 2 h [2, 18] [%]	remaining at 2 h [2, 19] [%]	remaining at 2 h [2, 20] [%]	remaining at 2 h [2, 21] [%]	solubility in Tocrisolve 100 [6]	solubility [6, 22] [µg/mL]	solubility [6, 23] [µg/mL]	solubility [6, 24] [µg/mL]	pH of solution in HP-beta-CD 15% [6]	pH of solution in PEG400 30% [6]	pH of solution in Tocrisolve [6, 26]	PAMPA Peff [7]	PAMPA %Acceptor [7] [%]	PAMPA %Donor [7] [%]	PAMPA %Membrane [7] [%]	Hepatocyte Clearance human [8] [μL/min/Mio cells]	Hepatocyte Clearance mouse [9] [μL/min/Mio cells]	mouse CB2R: beta arrestin efficacy [10] [%]	also measured
CC(C)(C)c1nc(N2CC[C@H](O)C2)c2nnn(Cc3nnnn3C3CC3)c2n1 [RO6871304, (3S)-1-{5-tert-butyl-3-[(1-cyclopropyl-1H-tetrazol-5-yl)methyl]-3H-[1,2, 3]triazolo[4,5-d]pyrimidin-7-yl}pyrrolidin-3-ol]	>1429	100	100	100	99	100	considerably lower	7200 (≈ 18700 µM)	1300	2300	6.0	6.1	5.7	3.06 10*-6 cm/s	8	62	30	15	140	94	IC50 ([3]; read-out: IC50 CYP3A4): > 50 µM; IC50 ([4]; read-out: IC50 CYP2C9): 16 µM; IC50 ([5]; read-out: IC50 CYP2D6): > 50 µM; solubility ([6]; aqueous with cosolvent or surfactant or cyclodextrin, in demin. water, n = 1, HU308 crystalline material, read-out: Solubility in PEG400 30%): 200 µg/mL (≈ 520 µM); solubility [6, 25]: > 1800 µg/mL; pH of solution in Mixed Micelles [6, 26]: 6.6; clearance in mouse hepatocytes (class in words) ([9]; underlying data previously published): high; EC50 [10, 27]: 0.026 µM
CCCCCCC(C)(C)c1cc(OC)c([C@H]2C=C(CO)[C@H]3C[C@@H]2C3(C)C)c(OC)c1 [HU308, {(1S,4S,5S)-4-[2,6-Dimethoxy-4-(2-methyloctan-2-yl)phenyl]-6,6-dimethylbicyclo[3.1.1]hept-2-en-2-yl}methanol, reference compound]	–	–	–	–	–	–	considerably lower	20 (≈ 48.2 µM)	1600	> 10300	5.7	5.1	6.1	2.53 10*-6 cm/s	3	23	74	8.3	4.7	76	solubility thermodynamic [11, 28]: 52 µg/mL (≈ 125 µM); solubility thermodynamic [11, 29]: 60 µg/mL (≈ 145 µM); solubility thermodynamic [11, 30]: < 1 µg/mL; IC50 [3]: > 50 µM; IC50 [4]: > 50 µM; IC50 [5]: > 50 µM; T1/2 [12]: 3.3 h; Tmax [12]: 0.5 h; EC50 [10]: 0.592 µM
CCCCCCC(C)(C)c1cc(OC)c(C2=C[C@H]3CC[C@]2(CO)C3(C)C)c(OC)c1 [HU910, {(1S,4R)-2-[2,6-dimethoxy-4-(2-methyloctan-2-yl)phenyl]-7,7-dimethylbicyclo[2.2.1]hept-2-en-1-yl}methanol, reference compound]	>275	94	93	91	94	93	good solvent	320 (≈ 772 µM)	19200	> 87800	6.2	6.0	6.2	0.45 10*-6 cm/s	1	42	57	9.2	34	54	solubility thermodynamic [11, 28]: 59 µg/mL (≈ 142 µM); solubility thermodynamic [11, 29]: 128 µg/mL (≈ 309 µM); solubility thermodynamic [11, 30]: < 1 µg/mL; IC50 ([3]; read-out: IC50 CYP3A4): 37 µM; IC50 ([4]; read-out: IC50 CYP2C9): > 50 µM; IC50 ([5]; read-out: IC50 CYP2D6): > 50 µM; time of stirring to full dissolution in Tocrisolve 100 ([6]; data not shown): approximately 72 h; Solubility in PEG400 30% ([6]; in demin. water, n = 1, HU308 crystalline material): < LOD; solubility [6, 25]: 4400 µg/mL; pH of solution in Mixed Micelles [6, 26]: 6.2; Ki [13]: 0.043 µM; Plasma Protein Binding: FREE Fraction human [14]: 1.8%; P-glycoprotein-Mediated Efflux Extraction Ratio human [15]: 2.2; P-glycoprotein-Mediated Efflux Extraction Ratio mouse [16]: 3.0; T1/2 [12]: 5.2 h; Tmax [12]: 1 h; hCB2R β-arrestin EC50/mouse CB2R β-arrestin EC50 [10]: 0.5; EC50 [10, 27]: 0.224 µM
